# Data: PubChem BioAssay AID1963844 (Molecular Pharmacology Branch, DTP, NCI, 2024)
# System: 422866-222-R5-J1-PDC complex spheroid viability
# Experiment: Anticancer human tumor 422866-222-R5-J1-PDC patient-derived pancreatic adenocarcinoma cell line growth inhibition [POLQ]
# Details: for IC50: curve of first compound; for viability, T/C: stronger effect = lower value
# Method in brief: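 Patient-derived tumour cells were co-cultured with HUVEC and mesenchymal stem cells as multicellular spheroids at 37 °C. They were treated with POLQ inhibitors (novobiocin, ART-558, RP6685) alone or combined with other agents. Top concentrations were at or near clinical Cmax (otherwise 10 microM; SN-38 at 1 microM), decreasing in half-log steps.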
# [1] = second compound 0.0316 µM, first compound 0.00316 µM
# [2] = second compound 0.0316 µM, first compound 0.01 µM
# [3] = second compound 0.0316 µM, first compound 0.0316 µM
# [4] = second compound 0.0316 µM, first compound 0.1 µM
# [5] = second compound 0.1 µM, first compound 0.00316 µM
# [6] = second compound 0.1 µM, first compound 0.01 µM
# [7] = second compound 0.1 µM, first compound 0.0316 µM
# [8] = second compound 0.1 µM, first compound 0.1 µM
# [9] = second compound 0.316 µM, first compound 0.00316 µM
# [10] = second compound 0.316 µM, first compound 0.01 µM
# [11] = second compound 0.316 µM, first compound 0.0316 µM
# [12] = second compound 0.316 µM, first compound 0.1 µM
# [13] = second compound 1 µM, first compound 0.00316 µM
# [14] = second compound 1 µM, first compound 0.01 µM
# [15] = second compound 1 µM, first compound 0.0316 µM
# [16] = second compound 1 µM, first compound 0.1 µM
# [17] = second compound 3.16 µM, first compound 0.00316 µM
# [18] = second compound 3.16 µM, first compound 0.01 µM
# [19] = second compound 3.16 µM, first compound 0.0316 µM
# [20] = second compound 3.16 µM, first compound 0.1 µM
# [21] = second compound 10 µM, first compound 0.00316 µM
# [22] = second compound 10 µM, first compound 0.01 µM
# [23] = second compound 10 µM, first compound 0.0316 µM
# [24] = second compound 10 µM, first compound 0.1 µM
# [25] = second compound 0.0316 µM, first compound 0.316 µM
# [26] = second compound 0.0316 µM, first compound 1 µM
# [27] = second compound 0.1 µM, first compound 0.316 µM
# [28] = second compound 0.1 µM, first compound 1 µM
# [29] = second compound 0.316 µM, first compound 0.316 µM
# [30] = second compound 0.316 µM, first compound 1 µM
# [31] = second compound 1 µM, first compound 0.316 µM
# [32] = second compound 1 µM, first compound 1 µM
# [33] = second compound 3.16 µM, first compound 0.316 µM
# [34] = second compound 3.16 µM, first compound 1 µM
# [35] = second compound 10 µM, first compound 0.316 µM
# [36] = second compound 10 µM, first compound 1 µM
# 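Note: spheroids exposed to compounds for one week before readout.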
# 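Throughout, for viability, T/C: percent of DMSO vehicle wells luminescence so 100% = untreated viability.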
smiles,measurement,setting,value
Cn1ncnc1[C@H]1c2n[nH]c(=O)c3cc(F)cc(c23)N[C@@H]1c1ccc(F)cc1 + Nc1ccc(C#CCN(C(=O)Cc2ncc(C(F)(F)F)cc2C(F)(F)F)c2ccc(F)cc2)nn1,IC50,second compound 0.0316 µM,> 0.1 µM
same,IC50,second compound 0.1 µM,> 0.1 µM
same,IC50,second compound 0.316 µM,> 0.1 µM
same,IC50,second compound 1 µM,> 0.1 µM
same,IC50,second compound 3.16 µM,> 0.1 µM
same,IC50,second compound 10 µM,> 0.1 µM
same,"viability, T/C","second compound 0.0316 µM, first compound 0.000316 µM",91.5%
same,"viability, T/C","second compound 0.0316 µM, first compound 0.001 µM",115%
same,"viability, T/C",[1],80.7%
same,"viability, T/C",[2],104%
same,"viability, T/C",[3],88.3%
same,"viability, T/C",[4],75.7%
same,"viability, T/C","second compound 0.1 µM, first compound 0.000316 µM",101%
same,"viability, T/C","second compound 0.1 µM, first compound 0.001 µM",106%
same,"viability, T/C",[5],110%
same,"viability, T/C",[6],85.2%
same,"viability, T/C",[7],81.7%
same,"viability, T/C",[8],74.1%
same,"viability, T/C","second compound 0.316 µM, first compound 0.000316 µM",112%
same,"viability, T/C","second compound 0.316 µM, first compound 0.001 µM",108%
same,"viability, T/C",[9],86.1%
same,"viability, T/C",[10],91.6%
same,"viability, T/C",[11],92.7%
same,"viability, T/C",[12],75.2%
same,"viability, T/C","second compound 1 µM, first compound 0.000316 µM",109%
same,"viability, T/C","second compound 1 µM, first compound 0.001 µM",93.6%
same,"viability, T/C",[13],98.8%
same,"viability, T/C",[14],98.8%
same,"viability, T/C",[15],77%
same,"viability, T/C",[16],87.9%
same,"viability, T/C","second compound 3.16 µM, first compound 0.000316 µM",115%
same,"viability, T/C","second compound 3.16 µM, first compound 0.001 µM",111%
same,"viability, T/C",[17],98.1%
same,"viability, T/C",[18],94.9%
same,"viability, T/C",[19],89.1%
same,"viability, T/C",[20],92.4%
same,"viability, T/C","second compound 10 µM, first compound 0.000316 µM",101%
same,"viability, T/C","second compound 10 µM, first compound 0.001 µM",111%
same,"viability, T/C",[21],108%
same,"viability, T/C",[22],95.7%
same,"viability, T/C",[23],86.1%
same,"viability, T/C",[24],77.9%
C=CCn1c(=O)c2cnc(Nc3ccc(N4CCN(C)CC4)cc3)nc2n1-c1cccc(C(C)(C)O)n1 + Cc1cccc(N(C)C(=O)C2C(O)CCN2c2nc(C)cc(C(F)(F)F)c2C#N)c1,IC50,second compound 0.0316 µM,0.298 µM
same,IC50,second compound 0.1 µM,0.289 µM
same,IC50,second compound 0.316 µM,0.299 µM
same,IC50,second compound 1 µM,0.257 µM
same,IC50,second compound 3.16 µM,0.423 µM
same,IC50,second compound 10 µM,0.277 µM
same,"viability, T/C",[1],107%
same,"viability, T/C",[2],96.1%
same,"viability, T/C",[3],110%
same,"viability, T/C",[4],89.1%
same,"viability, T/C",[25],48.4%
same,"viability, T/C",[26],33.3%
same,"viability, T/C",[5],93%
same,"viability, T/C",[6],93.8%
same,"viability, T/C",[7],101%
same,"viability, T/C",[8],85.8%
same,"viability, T/C",[27],47.1%
same,"viability, T/C",[28],35.1%
same,"viability, T/C",[9],108%
same,"viability, T/C",[10],97.3%
same,"viability, T/C",[11],105%
same,"viability, T/C",[12],97.1%
same,"viability, T/C",[29],47.5%
same,"viability, T/C",[30],31.3%
same,"viability, T/C",[13],110%
same,"viability, T/C",[14],85.1%
same,"viability, T/C",[15],104%
same,"viability, T/C",[16],83.8%
same,"viability, T/C",[31],42.8%
same,"viability, T/C",[32],32.3%
same,"viability, T/C",[17],98.4%
same,"viability, T/C",[18],87.2%
same,"viability, T/C",[19],91.6%
same,"viability, T/C",[20],100%
same,"viability, T/C",[33],54.8%
same,"viability, T/C",[34],35.7%
same,"viability, T/C",[21],104%
same,"viability, T/C",[22],95.8%
same,"viability, T/C",[23],97.3%
same,"viability, T/C",[24],75.3%
same,"viability, T/C",[35],46.6%
same,"viability, T/C",[36],40.4%
CCc1c2c(nc3ccc(O)cc13)-c1cc3c(c(=O)n1C2)COC(=O)[C@]3(O)CC + Nc1ccc(C#CCN(C(=O)Cc2ncc(C(F)(F)F)cc2C(F)(F)F)c2ccc(F)cc2)nn1,IC50,second compound 0.0316 µM,< 0.00316 µM
same,IC50,second compound 0.1 µM,< 0.00316 µM
same,IC50,second compound 0.316 µM,< 0.00316 µM
same,IC50,second compound 1 µM,< 0.00316 µM
same,IC50,second compound 3.16 µM,< 0.00316 µM
same,IC50,second compound 10 µM,< 0.00316 µM
same,"viability, T/C",[1],40%
same,"viability, T/C",[2],32.4%
same,"viability, T/C",[3],33.4%
same,"viability, T/C",[4],33%
same,"viability, T/C",[25],35%
same,"viability, T/C",[26],16.2%
same,"viability, T/C",[5],39.4%
same,"viability, T/C",[6],37.8%
same,"viability, T/C",[7],35%
same,"viability, T/C",[8],32.4%
same,"viability, T/C",[27],32.8%
same,"viability, T/C",[28],20.6%
same,"viability, T/C",[9],35.8%
same,"viability, T/C",[10],38%
same,"viability, T/C",[11],34.8%
same,"viability, T/C",[12],33.3%
same,"viability, T/C",[29],33%
same,"viability, T/C",[30],16.9%
same,"viability, T/C",[13],38.4%
same,"viability, T/C",[14],32.3%
same,"viability, T/C",[15],32.7%
same,"viability, T/C",[16],31%
same,"viability, T/C",[31],30.5%
same,"viability, T/C",[32],21.7%
same,"viability, T/C",[17],36.2%
same,"viability, T/C",[18],31.6%
same,"viability, T/C",[19],29.4%
same,"viability, T/C",[20],32.7%
same,"viability, T/C",[33],39.1%
same,"viability, T/C",[34],23.1%
same,"viability, T/C",[21],38.6%
same,"viability, T/C",[22],35%
same,"viability, T/C",[23],36.9%
same,"viability, T/C",[24],28.7%
same,"viability, T/C",[35],31.2%
same,"viability, T/C",[36],18.6%
